Measurements published in PMC9457533, “Study on Metronidazole Acid-Base Behavior and Speciation with Ca^2+ for Potential Applications in Natural Waters” (Molecules, 2022).
Where “and” joins values, the source holds several entries; their conditions need not be identical. Equal values may be shown once.

Tests used:
[1] = 1H NMR titrations: protonation constants of MNZ; type: physicochemical; settings: t = 25 °C, I = 0.15 mol L^-1
Experimental: The acid-base behavior of the ligand was also investigated by ^1H NMR. Various spectroscopic titrations were therefore carried out on solutions containing L to determine the values of the chemical shifts, and to refine the protonation constant values. The ^1H NMR spectra, shown in Figure 5 at various pH values and t = 25 °C, show four distinct signals: a singlet associated with CH3 protons, two triplets related to the protons of the two CH2, indicated as CH2a and CH2b, and a singlet of the CH proton present in the imidazole ring. An upfield of 0.3 ppm of the CH chemical shift can be observed as a consequence of the deprotonation of the imidazole group for the pH increase. A similar behavior can be observed for the CH3 in which the chemical shift is 0.2 ppm. […] Furthermore, M-L solutions were analyzed by ^1H NMR at t = 25 °C and I = 0.15 mol L^−1, using a procedure already employed for other systems. The experimental spectra were reported in the Supplementary Materials.
NMR measurements were performed by Varian 500 NMR spectrometer. The ^1H NMR spectra were recorded using 90% H2O and 10% D2O as solvent and the chemical shifts were referred to the 1,4-dioxane signal (δCHdioxane = 3.7 ppm). […] Ca^2+-L spectra were recorded at the same conditions of ionic strength, temperature, and pH range of the free ligand. […]

[2] = design: method as in PMID 33975173; settings: t = 25 °C, I = 0.1 mol L^-1 in NaClO4, spectrophotometry; cited from earlier work
[3] = Dependence of protonation constants on temperature (van't Hoff equation), thermodynamic parameters; type: physicochemical; settings: t = 298.15 K, I = 0.15 mol L^-1 NaCl
Experimental: The protonation and formation constants values acquired at the three different temperatures of 15, 25, and 37 °C, listed in Table 1, were used to study their dependence on temperature, as already shown for several systems. The data obtained by the potentiometric measurements were analyzed using the following van’t Hoff equation:logβT = logβθ + ΔH^0(1/θ − 1/T) R ln 10(6) where logβT is the stability constant at a certain temperature (expressed in kelvin), while logβθ is the stability constant at t = 298.15 K, and R is the universal gas constant expressed as 8.314 J K^−1 mol^−1. Using the equation just reported, it was possible to calculate the protonation and formation enthalpies change values, together with Gibbs free energy and entropy changes.
(§1) The protonation constant of MNZ (L), formation constant values of Ca^2+(M)-MNZ (L), and titration parameters (analytical concentration of the reagents, standard potential E^0, junction potential) were determined by using BSTAC and STACO programs. LIANA program has provided the parameters characterizing the dependence of the protonation and formation constant values on the temperature and ionic strength. More details on software are present in ref. [59]. ^1H NMR data were processed by HypNMR software, which allows for calculating protonation and formation constant values and the individual chemical shift of species through the observed signals and assuming fast mutual exchange in the NMR time scale. UV-Vis data are processed by the HypSpec program, which allows refining of the protonation and formation constant as well as the molar absorption coefficient values (ε) of the species. The speciation diagrams and the formation percentage of the species are determined by the Hyss program.

[4] = Potentiometric titrations: formation constant of Ca^2+-MNZ species (CaLH) in NaCl; type: physicochemical; settings: for logK^CaLH: Ca + LH = CaLH
Experimental: To investigate the interaction between MNZ and Ca^2+, various potentiometric titrations were also performed on solutions containing different metal/ligand ratios. The reactions related to formation constants are indicated below, where the charges are omitted for simplicity and MNZ was indicated as L:Ca + L + rH = MLHr β^MLH^r(3) Ca + LHr = MLHr K^MLH^r(4)
Hydrolysis constant values of Ca^2+ species at various temperatures and ionic strength in NaCl, taken into account in the calculations relating to the M-L system, are reported in Supplementary Material. The most accurate speciation model is chosen by evaluating several factors, which are the statistical parameters standard and mean deviation, the formation percentages of the considered species, and the simplicity of the model. Based on potentiometric results, several computational tests were carried out considering different speciation models.
The potentiometric titrations were employed by Metrohm-Titrando 809 automated potentiometer with a combined glass electrode ORION, type Ross 8102SC and a Metrohm Dosino 800 automatic dispenser. The titrations were performed in cells with a capacity of 25 mL, characterized by a double wall inside which thermostated water circulates. The cells were connected to a thermostat model D1-G Haake. During the measurements, pure N2 was bubbled to avoid CO2 and O2 in solution. The system is interfaced to a PC through the Metrohm TIAMO 2.0 software, which automatically acquires the mL/mV pairs. It can control several parameters, such as e.m.f. stability, titrant delivery, and data acquisition. Estimated accuracy of this apparatus is ±0.15 mV and ±0.002 mL for e.m.f. and for readings of titrant volume. The acid-base titrations were carried out first on 25 mL solutions containing L, HCl, and NaCl as supporting electrolytes at different temperatures and ionic strength conditions. […] The solutions were titrated using standard NaOH solution. A calibration was associated with each measurement by titration with NaOH of a solution containing HCl, NaCl, and H2O, in order to calculate the standard electrode potential (E^0) and the pKw values.
as §1

[5] = Distribution diagram of Ca^2+-MNZ system vs pH; type: physicochemical; settings: I = 0.15 mol L^-1, CL = 2 mmol L^-1, CCa = 1 mmol L^-1, 4 ≤ pH ≤ 10
Experimental: as §1

Structure (SMILES): Cc1ncc([N+](=O)[O-])n1CCO [MNZ, 2-Methyl-5-nitroimidazole-1-ethanol]
- logβ H-NMR ([1]; L + 2H = LH2): 14.13(1)
- logβ H-NMR ([1]; L + H = LH): 11.81(1) ^1
- logK2 (protonation constant) [2]: 2.15
- TΔS ([3]; L + H = LH): 14.1 kcal/mol
- ΔG ([3]; L + H = LH): -15.9 kcal/mol
- ΔH ([3]; L + H = LH): -8 kJ mol^-1 and −8(7) kJ mol^-1
- TΔS ([3]; LH + H = LH2): 0.24 kcal/mol
- ΔG ([3]; LH + H = LH2): -3.35 kcal/mol
- ΔH ([3]; LH + H = LH2): -13 kJ mol^-1 and −13(3) kJ mol^-1
- logβ^CaLH ([4]; Ca + L + H = CaLH, t = 15 °C, I = 0.16 mol L^-1 NaCl): 14.06(11) ^4, 5
- logβ average value ([4]; Ca + L + H = CaLH, t = 25 °C, I = 0.15 mol L^-1, average of UV, potentiometry): 14.16(7)
- logβ^CaLH ([4]; Ca + L + H = CaLH, t = 25 °C, I = 0.5 mol L^-1 NaCl): 15.00(2)
- logβ^CaLH ([4]; Ca + L + H = CaLH, t = 25 °C, I = 0.98 mol L^-1 NaCl): 14.60(5) ^6
- logβ^CaLH ([4]; Ca + L + H = CaLH, t = 37 °C, I = 0.15 mol L^-1 NaCl): 13.56(8) ^7
- logK^CaLH ([4]; t = 15 °C, I = 0.16 mol L^-1 NaCl): 2.06 ^5
- logK^CaLH ([4]; t = 25 °C, I = 0.16 mol L^-1 NaCl (text: 0.15)): 2.49 ^5
- logK^CaLH ([4]; t = 25 °C, I = 0.5 mol L^-1 NaCl): 2.49
- logK^CaLH ([4]; t = 25 °C, I = 0.98 mol L^-1 NaCl): 2.38 ^6
- logK^CaLH ([4]; t = 37 °C, I = 0.15 mol L^-1 NaCl): 1.68 and 1.68 ^7
- maximum metal fraction of CaLH species ([5]; t = 25 °C): 0.4
- maximum metal fraction of CaLH species ([5]; t = 37 °C): over 0.1
